Here are results for 5 compounds from US8937155B2 (priority 2010, dated 2015).

One data set deals with M. luteus DSM 10240. The format is cell-based, Micrococcus luteus. The following applies: DSM 10240, 2 h. On the procedure:
(§1) Minimal inhibitory concentrations were determined in triplicates by a liquid broth microdilution assay in sterile 96-well plates (Greiner Bio-One GmbH, Frickenhausen, Germany) using a total volume of 100 μL per well (Amsterdam, D. Susceptibility testing of antimicrobials in liquid media in Antibiotics in laboratory medicine (ed. Lorian, V.) 52-111 (Lippincott Williams & Wilkins, Baltimore, 1996)). Aqueous peptide solutions (1 mg/mL) were serially two-fold diluted in 1% tryptic soy broth (TSB). A typical dilution series ranged from 128 μg/mL to 0.5 μg/mL in eight steps. Overnight cultures of bacteria were diluted with 1% TSB to 1.5×10^7 cells/mL (Klebsiella pneumoniae DSM 681, Escherichia coli BL21AI and DSM 10233) and 4×10^7 cells/mL (Micrococcus luteus ATCC 10240). Fifty μL of these solutions were added to each well gaining a starting cell concentration of 7.5×10^5 cells/well and 2×10^6 cells/well, respectively. […]

Data set [1] in a line: in vitro. The following applies: mouse.
Procedure: (§2) The serum stabilities of all peptides were determined in pure and 25% (v/v) aqueous pooled mouse serum (PAA Laboratories GmbH, Pasching, Austria) (Hoffmann R, Vasko M, & Otvos L. Serum stability of phosphopeptides. Analytica Chimica Acta 352: 319-25, 1997). Peptides were dissolved in serum at a final concentration of 75 μg/mL and incubated at 37° C. Aliquots taken in triplicates after 0, 30, 60, 120 and 240 min were precipitated by addition of trichloroacetic acid to a final concentration of 3% (v/v). After 10 minutes on ice, the samples were centrifuged, the supernatant neutralized with sodium hydroxide solution (1 mol/L) and stored at −20° C. The samples were analyzed on the analytical Jupiter C18-column using a linear aqueous acetonitrile or methanol gradient containing 0.1% (v/v) TFA. The metabolites were identified by MALDI-TOF-MS.
The nature of data set [2]: in vitro. The following applies: for stability relative to the original oncocin sequence: bacterial lysate of E. coli BL21 AI; for half-life at 150 μg/mL: pH 7.4. The procedure:
Bacteria (E. coli BL21 AI) were cultured over night at 37° C. in nutrient broth (Carl Roth GmbH & Co. KG, Karlsruhe, Germany). This suspension was centrifuged (5000 rpm, 4° C.) in a AVANTI® J=20-XP centrifuge using a JLA-10500 rotor (Beckman coulter, Fullerton, USA). The pellet was washed with phosphate buffered saline (PBS, 8.7 mmol/L Na2HPO4, 1.2 mmol/L KH2PO4, 150 mmol/L NaCl, pH 7.4) and centrifuged in an ALLEGRA® 21 R centrifuge (Beckman Coulter, 3000 rpm, 4° C., 20 min). The pellet was resuspended in PBS (60 mg/mL) and lysed on ice using ultra sonic (2×2 min with 2 s on/2 s off) applied via micro tip (750 W, 40% amplitude; Fisher Biobiock Scientific, Illkirch, France). One mL aliquots were centrifuged (15400 rpm, 20 min, 4° C.) and the supernatant was stored at −80′C.
The peptide concentration was determined with a Bradford protein assay (Bradford M M. Rapid and Sensitive Method for Quantitation of Microgram Quantities of Protein Utilizing Principle of Protein-Dye Binding. Analytical Biochemistry 72: 248-54, 1976). Briefly, 0.01% (w/v) Coomassie brilliant blue G250 was dissolved in 5% aqueous ethanol containing 8.5% orthophosphoric (Bradford reagent). The mixture was incubated first at 60° C. for 1 h and then at room temperature for 12 h. After filtration 200 μl of the reagent were mixed with 50 μl sample solution in a polystyrole 96-well plate and incubated for 15 min in the dark. The absorption was measured at 595 nm against the negative control (50 μl PBS+200 μL Bradford reagent). The protein concentration was calculated from a calibration curve of bovine serum albumin.
The stability against bacterial proteases was determined in a bacterial lysate of E. coli BL21 AI adjusted with PBS to a protein concentration of 0.5 mg/mL. Peptides were dissolved in the bacterial lysate at a final concentration of 150 μg/mL and incubated at 37° C. Aliquots were taken in triplicates after 0, 30, 60, 120, and 240 min and precipitated by addition of trichloroacetic acid to a final concentration of 3% (v/v). After 10 minutes on ice, the samples were centrifuged, the supernatant neutralized with sodium hydroxide solution (1 mol/L) and stored at −20° C. The samples were analyzed by RP-HPLC (Jupiter C18-column) using a linear aqueous acetonitrile or methanol gradient containing 0.1% (v/v) TFA. Metabolites were identified by MALDI-TOF-MS.

For another data set, the system named is E. coli BL21 AI. As to the kind of experiment: MIC, liquid broth microdilution assay. The format is cell-based, Escherichia coli. Particulars: 1% TSB, 37° C., 20±2 h. On the procedure: Minimal inhibitory concentrations were determined in triplicates by a liquid broth microdilution assay in sterile 96-well plates (Greiner Bio-One GmbH, Frickenhausen, Germany) using a total volume of 100 μL per well (Amsterdam, D. Susceptibility testing of antimicrobials in liquid media in Antibiotics in laboratory medicine (ed. Lorian, V.) 52-111 (Lippincott Williams & Wilkins, Baltimore, 1996)). Aqueous peptide solutions (1 mg/mL) were serially two-fold diluted in 1% tryptic soy broth (TSB). A typical dilution series ranged from 128 μg/mL to 0.5 μg/mL in eight steps. Overnight cultures of bacteria were diluted with 1% TSB to 1.5×10^7 cells/mL (Klebsiella pneumoniae DSM 681, Escherichia coli BL21AI and DSM 10233) and 4×10^7 cells/mL (Micrococcus luteus ATCC 10240). Fifty μL of these solutions were added to each well gaining a starting cell concentration of 7.5×10^5 cells/well and 2×10^6 cells/well, respectively. The plates were incubated at 37° C. and the absorbance of each well was measured after 20±2 h at 595 nm.
On the technique in general: In broth dilution the organism is exposed to a series of concentrations in liquid medium.

Another data set deals with K pneumoniae DSM 681. The format is cell-based, Klebsiella pneumoniae. Particulars: DSM 681, 2 h. On the procedure:
as §1

The subject of a further data set is E. coli DSM 10233. The format is cell-based, Escherichia coli. The following applies: DSM 10233, 2 h. The procedure:
as §1

For data set [3] the following is noted: full mouse serum.
Procedure: as §2
Data set [4] can be described thus: full mouse serum (pooled mouse serum, PAA Laboratories). Particulars: 37° C., up to 480 min.
Data set [5] can be described thus: bacterial lysate of E. coli BL21 AI. Particulars: 37° C., up to 240 min.

≈ marks a conversion by molar mass, not a printed value. Entries after “also recorded” stand apart in the source; their conditions may differ. Ends that are not written are not given here. Peptide text beside a SMILES is read from it. A value given as a limit tells only on which side of the number the result lay.

For orientation: half-life means the time needed for the level to fall by half in the phase considered. A higher half-life goes with slow decline. One may read the amount remaining as the share of the starting amount still present when the sample was taken.

For `CC(C)C[C@H](NC(=O)[C@H](Cc1ccc(O)cc1)NC(=O)[C@@H]1CCCN1C(=O)[C@@H]1CCCN1C(=O)[C@H](CCCCN)NC(=O)[C@H](CC(=O)O)NC(=O)[C@@H](N)C(C)C)C(=O)N1CCC[C@H]1C(=O)N[C@@H](CCCNC(=N)N)C(=O)N1CCC[C@H]1C(=O)N[C@@H](CCCNC(=N)N)C(=O)N1CCC[C@H]1C(=O)N1CCC[C@H]1C(=O)N[C@@H](CCCNC(=N)N)C(=O)N[C@@H](CCCN)C(=O)N[C@H](C(=O)N[C@@H](Cc1ccc(O)cc1)C(=O)N[C@@H](CC(N)=O)C(=O)N[C@@H](CCCN)C(N)=O)[C@@H](C)O` [SEQ ID NO. 2, VDKPPYLPRPRPPROTYNO-NH2] (HELM PEPTIDE1{V.D.K.P.P.Y.L.P.R.P.R.P.P.R.[Orn].T.Y.N.[Orn].[am]}$$$$V2.0; N-terminus assumed), in the data set with M. luteus DSM 10240, the “minimal inhibitory concentration (MIC) M. luteus DSM 10240” value was determined as 8 µg/mL (≈ 3.49 µM). Also, the half-life at 75 μg/mL in “in vitro [1]” (full (pure) pooled mouse serum) was 2 h. The “stability relative to the original oncocin sequence” value in the data set “in vitro [2]” is “at least three times more stable”. The compound further registered a half-life at 150 μg/mL in “in vitro [2]” (cells or culture medium) of 2.83 h. For the same compound, in the data set on E. coli BL21 AI, the “minimal inhibitory concentration (MIC) E. coli BL21 AI” value turned out to be 4 µg/mL (≈ 1.74 µM).
Consider `CC(C)C[C@H](NC(=O)[C@H](Cc1ccc(O)cc1)NC(=O)[C@@H]1CCCN1C(=O)[C@@H]1CCCN1C(=O)[C@H](CCCCN)NC(=O)[C@H](CC(=O)O)NC(=O)[C@@H](N)C(C)C)C(=O)N1CCC[C@H]1C(=O)N[C@@H](CCCNC(=N)N)C(=O)N1CCC[C@H]1C(=O)N[C@@H](CCCNC(=N)N)C(=O)N1CCC[C@H]1C(=O)N1C[C@H](O)C[C@H]1C(=O)N[C@@H](CCCNC(=N)N)C(=O)N1C[C@H](O)C[C@H]1C(=O)N[C@H](C(=O)N[C@@H](Cc1ccc(O)cc1)C(=O)N[C@@H](CC(N)=O)C(=O)N[C@@H](CCCN)C(N)=O)[C@@H](C)O` [SEQ ID NO. 3, VDKPPYLPRPRP-4tHyp-R-4tHyp-TYNO-NH2] (HELM PEPTIDE1{V.D.K.P.P.Y.L.P.R.P.R.P.[Hyp].R.[Hyp].T.Y.N.[Orn].[am]}$$$$V2.0; N-terminus assumed), for which, in the data set on M. luteus DSM 10240, the “minimal inhibitory concentration (MIC) M. luteus DSM 10240” value was 32 µg/mL (≈ 13.9 µM). In addition, in the data set on K pneumoniae DSM 681, the “minimal inhibitory concentration (MIC) K pneumoniae DSM 681” value was 8 µg/mL (≈ 3.47 µM). Further, the “minimal inhibitory concentration (MIC) E. coli DSM 10233” value in the data set on E. coli DSM 10233 was 2 to 4 µg/mL. The compound also registered a half-life at 75 μg/mL in “in vitro [1]” (full (pure) pooled mouse serum) of more than 8 h. For the same compound, in data set [3], the “starting derivative not degraded after 480 min” value is listed as “(60%)”. Besides, in the data set “in vitro [2]”, the “stability relative to the original oncocin sequence” value is reported as “at least three times more stable”. This compound also had a half-life at 150 μg/mL in “in vitro [2]” (cells or culture medium) of 4 h. Further, the “minimal inhibitory concentration (MIC) E. coli BL21 AI” value with E. coli BL21 AI was 2 to 4 µg/mL; in the data set with E. coli BL21 AI (listed as 3), 4 µg/mL (≈ 1.73 µM).
As for `CC[C@H](C)[C@H](NC(=O)[C@H](CCCN)NC(=O)[C@H](CCCNC(=N)N)NC(=O)[C@@H]1CCCN1C(=O)[C@@H]1CCCN1C(=O)[C@H](CCCNC(=N)N)NC(=O)[C@@H]1CCCN1C(=O)[C@H](CCCNC(=N)N)NC(=O)[C@@H]1CCCN1C(=O)[C@H](CC(C)C)NC(=O)[C@H](Cc1ccc(O)cc1)NC(=O)[C@@H]1CCCN1C(=O)[C@@H]1CCCN1C(=O)[C@H](CCCCN)NC(=O)[C@H](CC(=O)O)NC(=O)[C@@H](N)C(C)C)C(=O)N[C@@H](Cc1ccc(O)cc1)C(=O)N[C@@H](CC(N)=O)C(=O)N[C@@H](CCCN)C(N)=O` [SEQ ID NO. 4, VDKPPYLPRPRPPROIYNO-NH2, reference compound] (HELM PEPTIDE1{V.D.K.P.P.Y.L.P.R.P.R.P.P.R.[Orn].I.Y.N.[Orn].[am]}$$$$V2.0; N-terminus assumed), in the data set on M. luteus DSM 10240, the “minimal inhibitory concentration (MIC) M. luteus DSM 10240” value is 8 µg/mL (≈ 3.47 µM). In the data set “in vitro [1]” (full (pure) pooled mouse serum), this compound came in with a half-life at 75 μg/mL of 2.92 h. The share remaining at 8 h, 75 μg/mL in the data set “in vitro [1]” (full (pure, undiluted) pooled mouse serum) came to 60%. Also, the “minimal inhibitory concentration (MIC) E. coli BL21 AI” value in the data set on E. coli BL21 AI is 8 µg/mL (≈ 3.47 µM).
As for VDKPPYLPRPRPPRRIYNR-NH2, the cleaved bond entry is reported as “Arg15-Ile16, major; also recorded: Asn18-Arg19, major” in data set [4] and “Pro10-Arg11; also recorded: Pro13-Arg14; also recorded: Arg15-Ile16” in data set [5].
Take “VDKPPYLPRPRPPRRIYNR-NH2 [SEQ ID NO. 1, VDKPPYLPRPRPPRRIYNR-NH2, reference compound]”: the “minimal inhibitory concentration (MIC) M. luteus DSM 10240” value with M. luteus DSM 10240 came to 8 µg/mL. In addition, the “minimal inhibitory concentration (MIC) K pneumoniae DSM 681” value in the data set with K pneumoniae DSM 681 is 4 µg/mL. For the same compound, the “minimal inhibitory concentration (MIC) E. coli DSM 10233” value in the data set on E. coli DSM 10233 turned out to be 16 µg/mL. The compound also gave a half-life at 75 μg/mL in the data set “in vitro [1]” (pure (full) pooled mouse serum) of 0.5 h. Further, the half-life at 150 μg/mL in “in vitro [2]” (Escherichia coli) was found to be 1 h. In addition, in the data set on E. coli BL21 AI, the “minimal inhibitory concentration (MIC) E. coli BL21 AI” value came out at 4 µg/mL.
